For eleven compounds, Emax and IC50 results are on record in patent publication US7977489B2, “Benzylthiazolone inhibitors of estrogen-related receptors (ERR)” (Exelixis, Inc., priority 2004, dated 2011).

A value given as a limit tells only on which side of the number the result lay.

The assay concerns the target T1, ERRα (Homo sapiens, UniProt P11474).
T1 construct: expressed in transfected cells; host or cells: CV-1 (African green monkey kidney) cells, transient transfection with CMX-GAL4-ERRα
T1 sequence (P11474 174-423): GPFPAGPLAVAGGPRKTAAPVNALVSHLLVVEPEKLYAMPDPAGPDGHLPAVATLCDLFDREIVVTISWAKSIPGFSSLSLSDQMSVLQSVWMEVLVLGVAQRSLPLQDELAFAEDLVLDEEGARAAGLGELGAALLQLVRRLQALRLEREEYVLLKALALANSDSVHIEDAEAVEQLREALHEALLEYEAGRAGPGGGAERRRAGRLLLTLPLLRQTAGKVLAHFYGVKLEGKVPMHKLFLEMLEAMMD
Nature of the assay: GAL4-ERRα co-transfection assay (luciferase reporter, CV-1 cells). The class given is cell-based. The following applies: for Emax: CV-1, average percent inhibition of ERRα activity relative to control 3-[4-(2,4-Bis-trifluoromethyl-benzyloxy)-3-methoxy-phenyl]-2-cyano-N-(5-trifluoromethyl-[1,3,4]thiadiazol-2-yl)-acrylamide; for IC50: average IC50 for inverse agonist activity in the GAL4-ERRα assay, CV-1 cells. On the procedure: Compound activity was also determined in a cell based assay using a GAL4-ERRα chimera to identify active compounds.
CMX-GAL4-ERRα was constructed by cloning nucleotides encoding amino acids 174-423 of ERRα (see GenBank sequence XM048286) into the vector pCMX-GAL4 (Perlmann et al., 1993, Genes & Development 7:1411-1422) comprising nucleotides encoding for amino acids 1-147 of the GAL4 DNA binding domain.
The TK-MH100×4-Luc (GAL4UAS-TK-Luciferase) reporter constructs were constructed by insertion of four copies of the Gal4 UAS (Kang et al. 1993, J. Biol. Chem. 268:9629-9635) into the Hind III site of TK-Luc. The parental plasmid TK-Luc was prepared by insertion of the Herpes simplex virus thymidine kinase gene promoter (−105 to +51) obtained from the plasmid pBLCAT2 by digestion with HindIII and XhoI (described in Luckow et al., 1987, Nuc. Acid. Res. 15:5490) into the plasmid MTV-LUC described by Hollenberg and Evans, 1988, Cell 55:899-906) after removal of MTV-LTR promoter sequence from MTV-LUC via digestion with HindIII and XhoI. Correct cloning was confirmed by restriction digestion and or sequencing.
Assays were performed using CV-1 (African Green Monkey Kidney Cells) (ATCC) cells at 70 percent confluency in T175 flasks grown with media containing 10% charcoal/Dextran-treated fetal bovine serum. Cells were transiently transfected with a DNA mixture containing 12 μg of CMX-GAL4-ERRα (comprising the ligand binding domain), […] of TK-MH100×4-Luc, and 2 μg of CMX-βGal using the transfection reagent FuGENE6 (Roche Molecular Biochemicals, Indianapolis, Ind.) following recommended protocols and instructions provided by the manufacturer. Following incubation with transfection reagents for 5 hours at 37° C., cells were washed, removed from the flasks with 1× Trypsin-EDTA solution (Sigma-Aldrich, Inc. St. Louis, Mo., and then resuspended in media containing 5% charcoal/Dextran-treated fetal bovine serum to give a final concentration of 1.1×10^5 cells/ml.
Assay plates were prepared by dispensing approximately 5 μl of each compound into a well of a 384 well plate to achieve a final compound concentration of approximately 10 μM after addition of cells. Cells were added to assay plates (45 μl) via the use of a Multiprop dispenser (MTX Labs, Inc., Vienna, Va.). The assay plates containing both compounds and screening cells were incubated for approximately 20 hours at 37° C. and 5% CO2 in a tissue culture incubator.
After incubation of the transfected cells with compounds, Lysis buffer (1% Triton X-100, 10% Glycerol, 5 mM DTT, 1 mM EGTA, 25 mM Tricine) and Luciferin assay buffer (0.73 mM ATP, 22.3 mM Tricine, 0.11 mM EDTA, 33.3 mM DTT, 0.2M MgSO4, 11 mM Luciferin, 6.1 mM Coenzyme A, 0.01 mM HEPES) were prepared. Media was removed from the plates and lysis buffer and luciferin assay buffer mixed in a 1:1 ratio and then 30 μl was added to each well (384-well plate). Plates were read on the Northstar (Northstar Technologies, Inc., Acton, Mass.) and data was analyzed using ActivityBase (ID Business Solutions, Ltd., Guildford, Surrey, UK). Luciferase values were normalized with β-galactosidase values using the pCMX-βGal expression plasmid, to normalize for transfection efficiency as described previously (Willy et al., 1995, Gene & Development, 9:1033-1045).
No reporter-driven luciferase activity was observed without ERR transfection, indicating the ERR-dependency of the compounds.
The following table provides in vitro ERRα activity data of representative compounds described in the Examples. Average IC50 values for inverse agonist activity in the GAL4-ERRα assay are provided as follows: V: less than 0.5 μM; W: 0.5 μM-1 μM; X: 1 μM to 2 μM and Y: 2 μM to 5 μM. Average percent inhibition with respect to ERRα activity relative to a control (3-[4-(2,4-Bis-trifluoromethyl-benzyloxy)-3-methoxy-phenyl]-2-cyano-N-(5-trifluoromethyl-[1,3,4]thiadiazol-2-yl)-acrylamide) is provided as follows. […]
Background: In a reporter assay the amount or activity of a reporter protein is the signal.

A word on the Emax: it is the maximal effect, on the per cent scale that the assay sets. The term IC50 denotes the point on the concentration scale where inhibition reaches its midpoint. Higher therefore signals weaker potency in that assay. As to `COc1cc(C=C2SC(N3CC(C)OC(C)C3)=NC2=O)ccc1OCc1ccc(C(F)(F)F)cc1C(F)(F)F` (stereo not shown) [5-[1-[4-(2,4-Bis-trifluoromethyl-benzyloxy)-3-methoxy-phenyl]-methylidene]-2-(2,6-dimethyl-morpholin-4-yl)-thiazol-4-one], the Emax lay within 100 to 120% and the IC50 lay within 1000 to 2000 nM.

On to `COc1cc(C=C2SC(N3CCCC(c4nc5cc(C)ccc5[nH]4)C3)=NC2=O)ccc1OCc1ccc(C(F)(F)F)cc1C(F)(F)F` (stereo not shown) [5-[1-[4-(2,4-Bis-trifluoromethyl-benzyloxy)-3-methoxy-phenyl]-methylidene]-2-[3-(5-methyl-1H-benzoimidazol-2-yl)-piperidin-1-yl]-thiazol-4-one], for which the Emax was in the range of 80 to 100% and the IC50 lay within 1000 to 2000 nM.

In turn, `CCCCCN1CCN(C2=NC(=O)C(=Cc3ccc(OCc4ccc(C(F)(F)F)cc4C(F)(F)F)c(OC)c3)S2)CC1` [5-[1-[4-(2,4-Bis-trifluoromethyl-benzyloxy)-3-methoxy-phenyl]-methylidene]-2-(4-pentyl-piperazin-1-yl)-thiazol-4-one] yielded an Emax of 80 to 100% and an IC50 of 2000 to 5000 nM.

Take `COc1cc(C=C2SC(N3CCOCC3)=NC2=O)ccc1OCc1ccc(C(F)(F)F)cc1C(F)(F)F` [Example 19, 5-[1-[4-(2,4-Bis-trifluoromethyl-benzyloxy)-3-methoxy-phenyl]-methylidene]-2-morpholin-4-yl-thiazol-4-one]: the maximal response (Emax) is 80 to 100% and the 50% inhibitory concentration (IC50) was in the range of 500 to 1000 nM.

In the case of `COc1cc(C=C2SC(N3CCN(CC4CCN(C)CC4)CC3)=NC2=O)ccc1OCc1ccc(C(F)(F)F)cc1C(F)(F)F` [5-[1-[4-(2,4-Bis-trifluoromethyl-benzyloxy)-3-methoxy-phenyl]-methylidene]-2-[4-(1-methyl-piperidin-4-ylmethyl)-piperazin-1-yl]-thiazol-4-one], the Emax lay within 80 to 100% and the IC50 lay within 500 to 1000 nM.

For `COc1cc(C=C2SC(N3CCCC3c3ccccn3)=NC2=O)ccc1OCc1ccc(C(F)(F)F)cc1C(F)(F)F` (stereo not shown) [5-[1-[4-(2,4-Bis-trifluoromethyl-benzyloxy)-3-methoxy-phenyl]-methylidene]-2-(2-pyridin-2-yl-pyrrolidin-1-yl)-thiazol-4-one], the Emax fell in the range of 100 to 120% and the IC50 was below 500 nM.

As to `COc1cc(C=C2SC(N3CCN(Cc4ccc(Cl)cc4)CC3)=NC2=O)ccc1OCc1ccc(C(F)(F)F)cc1C(F)(F)F` [5-[1-[4-(2,4-Bis-trifluoromethyl-benzyloxy)-3-methoxy-phenyl]-methylidene]-2-[4-(4-chloro-benzyl)-piperazin-1-yl]-thiazol-4-one], the Emax was in the range of 60 to 80% and the IC50 lay within 2000 to 5000 nM.

`COc1cc(C=C2SC(N3CCSCC3)=NC2=O)ccc1OCc1ccc(C(F)(F)F)cc1C(F)(F)F` [Example 22, 5-[1-[4-(2,4-Bis-trifluoromethyl-benzyloxy)-3-methoxy-phenyl]-methylidene]-2-thiomorpholin-4-yl-thiazol-4-one] gave an Emax of 100 to 120% and an IC50 of 500 to 1000 nM.

As for `COc1cc(C=C2SC(N3CCN(S(C)(=O)=O)CC3)=NC2=O)ccc1OCc1ccc(C(F)(F)F)cc1C(F)(F)F` [Example 29, 5-[1-[4-(2,4-Bis-trifluoromethyl-benzyloxy)-3-methoxy-phenyl]-methylidene]-2-(4-methanesulfonyl-piperazin-1-yl)-thiazol-4-one], the Emax was 100 to 120% and the IC50 is below 500 nM.

For `COc1cc(C=C2SC(N3CCNCC3)=NC2=O)ccc1OCc1ccc(C(F)(F)F)cc1C(F)(F)F` [Example 23, 5-[1-[4-(2,4-Bis-trifluoromethyl-benzyloxy)-3-methoxy-phenyl]-methylidene]-2-piperazin-1-yl-thiazol-4-one], the maximum response (Emax) was in the range of 100 to 120% and the IC50 is below 500 nM.

Compound `COc1cc(C=C2SC(N3CCN(C)CC3)=NC2=O)ccc1OCc1ccc(C(F)(F)F)cc1C(F)(F)F` [Example 18, 5-[1-[4-(2,4-Bis-trifluoromethyl-benzyloxy)-3-methoxy-phenyl]-methylidene]-2-(4-methyl-piperazin-1-yl)-thiazol-4-one] yielded an Emax of 100 to 120% and an IC50 below 500 nM.
